Bridge positions count the residues as written; N and C are the ends. Square brackets hold non-standard residues; d marks the D form. Peptide text beside a SMILES is read from it. * marks the point of attachment. Myristoyl = CCCCCCCCCCCCCC(=O)*; R8 = C=CCCCCCC[C@@](C)(N)C(=O)O; S5 = C=CCCC[C@](C)(N)C(=O)O
Columns and labels:
[1] = system: 97 kinases (kinase named in endpoint); experiment: Eurofins KINOMEscan profiling, 97 kinases; conditions: 1 µM
Description: This experiment was performed by Eurofins KINOMEscan™ Profiling Service. […] The lysates were centrifuged and filtered, the remaining kinases were produced in HEK-293 cells and subsequently tagged with DNA for qPCR detection. […] The liganded beads were blocked with excess biotin and washed with blocking buffer (SeaBlock (Pierce), 1% BSA, 0.05% Tween-20, 1 mM DTT). […] Test compounds were prepared as 100x stocks in 100% DMSO and directly diluted into the assay. All reactions were performed in polypropylene 384-well plates in a final volume of 0.02 ml. […] The kinase concentration in the eluates was measured by qPCR.
(negative control signal - positive control signal)] x 100. ( b) AccompanyingSelectivity Scores or S -scores
which are quantitative measures of compound selectivity. They are calculated by dividing the number of
kinases that compounds bind to by the total number of distinct kinases tested, excluding mutant variants.
S(35)= ( num ber of non -mutant kinases with %Ctrl <35)/(number of non- mutant kinases tested)], S(10)=
non- mutant kinases with %Ctrl <1)/(number of non- mutant kinases tested)].

[2] = system: SK-MEL-147 cells; experiment: Cellular uptake of TAMRA-labeled peptides; format: in vitro ADME, human; conditions: TAMRA-tagged, cell line not given

Row | SMILES | additional kinases other than FAK inhibited [1] | kinases inhibited >50% (interactions mapped) out of 97 tested [1] | selectivity score S(1) ([1]; 90 non-mutant kinases) | selectivity score S(10) ([1]; 90 non-mutant kinases) | selectivity score S(35) ([1]; 90 non-mutant kinases) | Number of Hits, S(1) ([1]; %Ctrl <1, 90 non-mutant kinases) | Number of Hits, S(10) ([1]; %Ctrl <10, 90 non-mutant kinases) | Number of Hits, S(35) ([1]; %Ctrl <35, 90 non-mutant kinases) | cell permeability compared to TAMRA-Alkyne control [2]
1 | CNC(=O)c1ccc(Nc2ncc(C(F)(F)F)c(NCc3nccnc3N(C)S(C)(=O)=O)n2)cc1 [defactinib] | 44 | 45 | 0.033 | 0.122 | 0.256 | 3 | 11 | 23 | –
2 | CCCCCCCCCCCCCC(=O)N[C@@H](CC(N)=O)C(=O)N[C@@H](CC(C)C)C(=O)N[C@]1(C)CCCCCCC=CCCC[C@@](C)(C(=O)N[C@@H](CCC(=O)O)C(=O)N[C@@H](CCC(=O)O)C(=O)N[C@@H](CC(N)=O)C(N)=O)NC(=O)[C@H](CC(C)C)NC(=O)[C@H](CC(C)C)NC(=O)[C@H](CCCNC(=N)N)NC(=O)[C@H](CC(=O)O)NC(=O)[C@H](CCC(=O)O)NC(=O)[C@H](CCC(=O)O)NC1=O [compound 2020] (Myristoyl-NL[R8]EEDRLL[S5]EEN-NH2; staple 3-10) | – | – | – | – | – | – | – | – | approximately threefold higher
